The text below walks through data of the NIST ThermoML archive (doi:10.1021/je900614f).

For this data set the following is noted: Crystal; visual observation.

Numbers after ± are expanded uncertainties.

For the compound `CCOc1ccc(NC(C)=O)cc1` [N-(4-ethoxyphenyl)ethanamide], the Triple point temperature amounted to 407 ± 1 K.
